Here are results for 15 compounds from patent US4169150A, “Benzodiazepine derivatives and pharmaceutical compositions containing said derivatives” (Teijin Limited, priority 1975, dated 1979).

The ED50 is the dose at which the effect has come halfway, by size or by number of responders.

Series [1] has as its system mice. The series is described as follows: Anti-pentylene tetrazole convulsion activity. The format is in vivo, mouse (ddY-type male mice). The settings on record: Mus musculus, PO, pentylene tetrazole 125 mg/kg s.c. 1 hour later, read-out: ED50 anti-convulsion, pentetrazol shock. As to the method: (§1) In the following tests, the pharmacological actions of the compounds were tested by using six mice (ddY-type male mice) for each dosage level, and ED50 values were determined. In the determination of ED50 values, the dosages of the test compounds were increased or decreased by a common ratio of 3 as required, and 3 or 4 dosage levels were used. The calculation of the ED50 values was made on the basis of the Litchfield-Wilcoxon method [J. Pharmacol. Exp. Therap., 96, 99 (1949)].
(1) Anti-pentylene tetrazole convulsion activity
Each of test compounds suspended in a 5% gum arabic solution was orally administered to mice. One hour later, pentylene tetrazole in an amount of 125 mg/kg was administered subcutaneously. Then, over the course of 30 minutes, the presence or absence of convulsion in the subjects was examined.

Series [2] concerns mice. The series is described as follows: Anti-electroshock convulsant activity (maximal electroshock). In kind it is in vivo, mouse (ddY-type male mice). Conditions: Mus musculus, PO, electroshock 30 mA, 200 Hz 1 hour later, read-out: ED50 anti-convulsion, maximal electroshock. As to the method: as §1
(3) Anti-electroshock convulsant activity
The subjects were orally administered with the test compound. One hour later, electroshock (30 mA, 200 Hz, 1 msec) was applied for 0.2 second through both ears, and the presence or absence of tonic extensor convulsion was examined.
On the technique in general: The maximal electroshock test induces tonic seizures with an electrical stimulus.

In series [3] the test system is mice. The experiment in a line: Taming activity (fighting mouse). The format is in vivo, mouse (ddY-type male mice). The settings on record: PO, electroshock 100 V, 3 mA. As to the method:
as §1
This was determined by a partially modified version of the method of Tedeschi et al. [J. Pharmacol. Exp. Therap., 125, 28 (1959)]. Two mice different in body weight by less than 1 gram were placed in a fighting device, and electroshock (100 V, 3 mA, 0.45 Hz, 0.5 sec) was applied for 3 minutes. […] Then, at intervals of 30 minutes, electroshock was applied under the above conditions, and the presence or absence of fighting reaction in the subjects was examined.

Series [4] deals with mice. The experiment in a line: Muscle relaxant activity (inclined screen). The format is in vivo, mouse (ddY-type male mice). The settings on record: Mus musculus, PO, plate inclined at 70°, 30 seconds, read-out: ED50 muscle relaxation, inclined screen. Here is the method:
as §1
(5) Muscle relaxant activity
Mice were placed on a wooden plate having a smooth surface and being inclined at an angle of 70°, and those which could stay on the initially placed positions for more than 30 seconds were selected. The selected subjects were orally administered with the test compound, and placed on the inclined plate. Examination was made as to whether the mice slipped down within 30 seconds.

The test system of series [5] is mice. The series is described as follows: Motor incoordinating activity (rotating rod). Conditions: Mus musculus, 0.05 h, PO, 5.5 rpm, within 3 minutes, read-out: ED50 motor incoordination, rotating rod. The format is in vivo, mouse (ddY-type male mice). As to the method:
as §1
(6) Motor incoordinating activity
Mice which could stay for more than 3 minutes on a rotating rod having a diameter of 3.0 cm and rotating at a speed of 5.5 rpm. The subjects were orally administered with the test compound, and then at intervals of 30 minutes, they were placed on the rotating rod. Examination was made as to whether they slipped down within 3 minutes.

For series [6], the system named is mice. The series is described as follows: Potentiation of thiopental hypnosis (sedation). In kind it is in vivo, mouse (ddY-type male mice). The settings on record: Mus musculus, 1 h, PO, sodium thiopental 50 mg/kg i.p., sleeping time prolonged to two times. Here is the method:
as §1
(4) Potentiation of thiopental hypnosis
The subjects were orally administered with the test compound. One hour later, sodium thiopental in an amount of 50 mg/kg was administered intraperitoneally. The dosage which prolonged the sleeping time (the period of loss of righting reflex) to two times that in the case of a group administered only with sodium thiopental was determined.

A short description of series [7]: Pharmacological / central nervous system depressant actions, general statement. The format is in vivo. The settings on record: anti-anxietic, sedative, hypnotic, muscle relaxant, anti-convulsant actions.
Series [8] has as its system mice. The experiment in a line: Acute toxicity. The format is in vivo, mouse (male ddY-type mice). Conditions: one week observation. As to the method: A test compound was suspended in a 5% solution of gum arabic, and the suspension was administered to a group of 2 to 4 male ddY-type mice in a dose of 1000, 2000, and 3000 mg/kg, respectively. The conditions of the subjects were observed over a period of one week after administration, and the acute toxicity was examined.

Consider `Clc1ccc2c(c1)C(c1ccccc1Cl)=NCc1cccn1-2` [Comparison (R5=Cl, R6=Cl, R7=H), reference compound], for which the ED50 in series [1] is greater than 100 mg/kg; in series [2], greater than 100 mg/kg; in series [3], greater than 100 mg/kg; in series [4], greater than 100 mg/kg; in series [5], greater than 100 mg/kg; in series [6], 18 mg/kg.

On to `Clc1ccc2c(c1)C(c1ccccc1)=NCc1cccn1-2` [Comparison (R5=Cl, R6=H, R7=H), 8-Chloro-6-phenyl-4H-pyrrolo[1,2-a][1,4]benzodiazepine, reference compound], for which the 50% effective dose (ED50) was 78 mg/kg in series [1]; greater than 100 mg/kg in series [2]; greater than 100 mg/kg in series [3]; greater than 100 mg/kg in series [4]; greater than 100 mg/kg in series [5]; 44 mg/kg in series [6]. In series [7], the “Pharmacological actions in words” value is “does not substantially show those pharmacological actions which are common to many other known benzodiazepines”.

Take `c1ccc(C2=NCc3cccn3-c3ccccc32)cc1` [Comparison (R5=H, R6=H, R7=H), reference compound]: the ED50 in series [1] is greater than 100 mg/kg; in series [2], greater than 100 mg/kg; in series [3], 78 mg/kg; in series [4], greater than 100 mg/kg; in series [5], greater than 100 mg/kg; in series [6], 55 mg/kg.

For the compound `Cc1ccc2n1-c1ccc(Cl)cc1C(c1ccccc1Cl)=NC2` [Compound 1, 8-chloro-6-(2-chlorophenyl)-1-methyl-4H-pyrrolo[1,2-a][1,4]benzodiazepine], the ED50 was 20 mg/kg in series [1]; greater than 100 mg/kg in series [2]; 11 mg/kg in series [3]; greater than 100 mg/kg in series [4]; 100 mg/kg in series [5]; 2.8 mg/kg in series [6].

Take `Cc1ccc2n1-c1ccc(Cl)cc1C(c1ccccc1F)=NC2` [Compound 2, 8-chloro-6-(2-fluorophenyl)-1-methyl-4H-pyrrolo[1,2-a][1,4]benzodiazepine]: the ED50 in series [1] is 36 mg/kg; in series [2] it was greater than 100 mg/kg; in series [3] it was 55 mg/kg; in series [4], greater than 100 mg/kg; in series [5] it was greater than 100 mg/kg; in series [6], 6.9 mg/kg.

As for `Cc1cc2n(c1C)-c1ccc(Cl)cc1C(c1ccccc1F)=NC2` [Compound 3, 8-chloro-1,2-dimethyl-6-(2-fluorophenyl)-4H-pyrrolo[1,2-a][1,4]benzodiazepine], the ED50 in series [1] is 10 mg/kg; in series [2], greater than 100 mg/kg; in series [3], 17 mg/kg; in series [4] it was greater than 100 mg/kg; in series [5], greater than 100 mg/kg; in series [6], 10 mg/kg.

In the case of `Cc1cc2n(c1C)-c1ccc(Cl)cc1C(c1ccccc1Cl)=NC2` [Compound 4, 8-chloro-6-(2-chlorophenyl)-1,2-dimethyl-4H-pyrrolo[1,2-a][1,4]benzodiazepine], the ED50 in series [1] was 6.5 mg/kg; in series [2] it was greater than 100 mg/kg; in series [3], 4.8 mg/kg; in series [4], greater than 100 mg/kg; in series [5], 40 mg/kg; in series [6], 2.6 mg/kg.

As for `Cc1cc2n(c1C)-c1ccc(Cl)cc1C(c1ccccc1)=NC2` [Compound 5, 8-chloro-1,2-dimethyl-6-phenyl-4H-pyrrolo[1,2-a][1,4]benzodiazepine], the ED50 in series [1] is 13.5 mg/kg; in series [2], greater than 100 mg/kg; in series [3], no less than 30 mg/kg; in series [4], greater than 100 mg/kg; in series [5], greater than 100 mg/kg; in series [6], 21 mg/kg.

Consider `CCc1cc2n(c1C)-c1ccc(Cl)cc1C(c1ccccc1Cl)=NC2` [Compound 6, 8-chloro-6-(2-chlorophenyl)-2-ethyl-1-methyl-4H-pyrrolo[1,2-a][1,4]benzodiazepine], for which the ED50 in series [1] is 3.4 mg/kg; in series [2] it was greater than 30 mg/kg; in series [3], 5.5 mg/kg; in series [4], 14 mg/kg; in series [5], 23.5 mg/kg; in series [6], 0.8 mg/kg.

With `CCc1cc2n(c1C)-c1ccc(Cl)cc1C(c1ccccc1F)=NC2` [Compound 7, 8-chloro-2-ethyl-6-(2-fluorophenyl)-1-methyl-4H-pyrrolo[1,2-a][1,4]benzodiazepine], the ED50 in series [1] is 5.5 mg/kg; in series [2] it was greater than 30 mg/kg; in series [3], 5.5 mg/kg; in series [4] it was 30 mg/kg; in series [5] it was greater than 100 mg/kg; in series [6], 2.2 mg/kg.

Regarding `CCc1cc2n(c1C)-c1ccc(Cl)cc1C(c1c(F)cccc1F)=NC2` [Compound 8, 8-chloro-2-ethyl-6-(2,6-difluorophenyl)-1-methyl-4H-pyrrolo[1,2-a][1,4]benzodiazepine], the 50% effective dose (ED50) in series [1] is 11.2 mg/kg; in series [2], greater than 30 mg/kg; in series [3], 12.5 mg/kg; in series [4], 69 mg/kg; in series [5], greater than 100 mg/kg; in series [6] it was 1.9 mg/kg.

For `Cc1cc(C)n2c1CN=C(c1ccccc1Cl)c1cc(Cl)ccc1-2` [Compound 9, 8-chloro-6-(2-chlorophenyl)-1,3-dimethyl-4H-pyrrolo[1,2-a][1,4]benzodiazepine], the ED50 in series [1] stood at 1.8 mg/kg; in series [2] it was 100 mg/kg; in series [3], 1.6 mg/kg; in series [4], 8.2 mg/kg; in series [5] it was 15.5 mg/kg; in series [6] it was 0.34 mg/kg. Also, the “Acute toxicity: death of the subjects” value in series [8] (3000 mg/kg) is listed as “did not cause any death”.

Consider `Cc1cc(C)n2c1CN=C(c1ccccc1F)c1cc(Cl)ccc1-2` [Compound 10, 8-chloro-1,3-dimethyl-6-(2-fluorophenyl)-4H-pyrrolo[1,2-a][1,4]benzodiazepine], for which the 50% effective dose (ED50) is 5.5 mg/kg in series [1]; greater than 100 mg/kg in series [2]; 8.8 mg/kg in series [3]; 21.5 mg/kg in series [4]; greater than 30 mg/kg in series [5]; 2.4 mg/kg in series [6].

`Cc1cc(C)n2c1CN=C(c1c(F)cccc1F)c1cc(Cl)ccc1-2` [Compound 11, 8-chloro-6-(2,6-difluorophenyl)-1,3-dimethyl-4H-pyrrolo[1,2-a][1,4]benzodiazepine]: the ED50 in series [1] was 2 mg/kg; in series [2], 88 mg/kg; in series [3] it was 1.6 mg/kg; in series [4] it was 10 mg/kg; in series [5], 15.5 mg/kg; in series [6], 0.7 mg/kg. Besides, the “Acute toxicity: death of the subjects” value in series [8] (3000 mg/kg) was “did not cause any death”.

Consider `CN1C(=O)CN=C(c2ccccc2)c2cc(Cl)ccc21` [Diazepam, reference compound], for which the ED50 in series [1] amounted to 0.7 mg/kg; in series [2], 8.8 mg/kg; in series [3] it was 1.6 mg/kg; in series [4] it was 1 mg/kg; in series [6], 0.3 mg/kg. In addition, in series [8] (1000 mg/kg), the “Acute toxicity: death of the subjects” value is given as “caused half of the mice to die”.
